Assay results: PubChem BioAssay (NCI)
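The compound was tested at five concentrations on cells cultured in 96-well plates, with a 48-hour exposure period. TGI is the concentration that stops growth completely.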 Where a SMILES comes first, the peptide text is derived from it. The star is where a group is joined. Boc = CC(C)(C)OC(=O)*

Key:
Assay in all cases: NCI tumour cell line growth inhibition, 48 h
[1] = tested on: CAKI-1 renal
[2] = tested on: UACC-257 melanoma
[3] = tested on: A549 NSCLC
[4] = tested on: MDA-MB-435
[5] = tested on: HCC-2998 colon
[6] = tested on: NCI-H460 lung
[7] = tested on: RXF 393 renal
[8] = tested on: HOP-92 NSCLC
[9] = tested on: IGROV1 ovarian
[10] = tested on: NCI-H226 lung
[11] = tested on: OVCAR-3 ovarian
[12] = tested on: NCI-H522 lung
[13] = tested on: LOX IMVI melanoma
[14] = tested on: HCT-116 colon
[15] = tested on: SK-MEL-28 melanoma
[16] = tested on: K-562 leukemia
[17] = tested on: UACC-62 melanoma
[18] = tested on: T-47D breast
[19] = tested on: DU-145 prostate
[20] = tested on: SW-620 colon
[21] = tested on: ACHN renal
[22] = tested on: SK-MEL-5 melanoma
[23] = tested on: TK-10 renal
[24] = tested on: U251 CNS
[25] = tested on: HT29 colon
[26] = tested on: CCRF-CEM leukemia
[27] = tested on: MDA-N
[28] = tested on: BT-549 breast
[29] = tested on: HOP-62 NSCLC
[30] = tested on: MOLT-4 leukemia
[31] = tested on: SK-MEL-2 melanoma
[32] = tested on: EKVX NSCLC
[33] = tested on: UO-31 renal
[34] = tested on: RPMI-8226 leukemia
[35] = tested on: SNB-19 CNS
[36] = tested on: MCF7 breast
[37] = tested on: HCT-15 colon
[38] = tested on: SN12C renal
[39] = tested on: HL-60(TB) leukemia
[40] = tested on: A498 renal
[41] = tested on: SK-OV-3 ovarian
[42] = tested on: SF-295 CNS
[43] = tested on: MALME-3M melanoma
[44] = tested on: M14 melanoma
[45] = tested on: KM12 colon
[46] = tested on: SF-268 CNS
[47] = tested on: COLO 205 colon
[48] = tested on: SR leukemia
[49] = tested on: SF-539 CNS
[50] = tested on: SNB-75 CNS
[51] = tested on: PC-3 prostate
[52] = tested on: MDA-MB-231 breast
[53] = tested on: OVCAR-8 ovarian
[54] = tested on: 786-0 renal
[55] = tested on: NCI/ADR-RES ovarian
[56] = tested on: HS 578T breast
[57] = tested on: OVCAR-5 ovarian
[58] = tested on: NCI-H23 lung
[59] = tested on: OVCAR-4 ovarian

Structure (SMILES): CC(NC(=O)OC(C)(C)C)C(=O)NC(Cc1ccccc1)C(=O)NCC(=O)O (stereo not drawn) (Boc-Ala-Phe-Gly-OH; configuration not given here)
- TGI [1]: > 100 µM
- TGI [2]: > 100 µM
- TGI [3]: > 100 µM
- TGI [4]: > 100 µM
- TGI [5]: > 100 µM
- TGI [6]: > 100 µM
- TGI [7]: > 100 µM
- TGI [8]: > 100 µM
- TGI [9]: > 100 µM
- TGI [10]: > 100 µM
- TGI [11]: > 100 µM
- TGI [12]: > 100 µM
- TGI [13]: > 100 µM
- TGI [14]: > 100 µM
- TGI [15]: > 100 µM
- TGI [16]: > 100 µM
- TGI [17]: > 100 µM
- TGI [18]: > 100 µM
- TGI [19]: > 100 µM
- TGI [20]: > 100 µM
- TGI [21]: > 100 µM
- TGI [22]: > 100 µM
- TGI [23]: > 100 µM
- TGI [24]: > 100 µM
- TGI [25]: > 100 µM
- TGI [26]: > 100 µM
- TGI [27]: > 100 µM
- TGI [28]: > 100 µM
- TGI [29]: > 100 µM
- TGI [30]: > 100 µM
- TGI [31]: > 100 µM
- TGI [32]: > 100 µM
- TGI [33]: > 100 µM
- TGI [34]: > 100 µM
- TGI [35]: > 100 µM
- TGI [36]: > 100 µM
- TGI [37]: > 100 µM
- TGI [38]: > 100 µM
- TGI [39]: > 100 µM
- TGI [40]: > 100 µM
- TGI [41]: > 100 µM
- TGI [42]: > 100 µM
- TGI [43]: > 100 µM
- TGI [44]: > 100 µM
- TGI [45]: > 100 µM
- TGI [46]: > 100 µM
- TGI [47]: > 100 µM
- TGI [48]: > 100 µM
- TGI [49]: > 100 µM
- TGI [50]: > 100 µM
- TGI [51]: > 100 µM
- TGI [52]: > 100 µM
- TGI [53]: > 100 µM
- TGI [54]: > 100 µM
- TGI [55]: > 100 µM
- TGI [56]: > 100 µM
- TGI [57]: > 100 µM
- TGI [58]: > 100 µM

Structure (SMILES): Cc1nnc(N)nc1/C=C\c1ccc(N(C)C)cc1
- TGI [1]: > 63.3 µM
- TGI [2]: > 100 µM
- TGI [3]: > 100 µM
- TGI [4]: > 100 µM
- TGI [5]: 23.8 µM
- TGI [6]: > 100 µM
- TGI [7]: > 100 µM
- TGI [8]: > 100 µM
- TGI [9]: > 100 µM
- TGI [10]: > 100 µM
- TGI [12]: 17.1 µM
- TGI [13]: 20.1 µM
- TGI [14]: > 100 µM
- TGI [15]: > 100 µM
- TGI [16]: > 100 µM
- TGI [17]: > 66.9 µM
- TGI [18]: > 100 µM
- TGI [59]: > 100 µM
- TGI [19]: > 100 µM
- TGI [20]: > 100 µM
- TGI [21]: > 100 µM
- TGI [22]: > 100 µM
- TGI [23]: > 100 µM
- TGI [24]: > 100 µM
- TGI [25]: > 100 µM
- TGI [26]: > 100 µM
- TGI [27]: > 100 µM
- TGI [28]: > 100 µM
- TGI [29]: > 100 µM
- TGI [30]: > 100 µM
- TGI [31]: > 100 µM
- TGI [32]: > 100 µM
- TGI [33]: > 100 µM
- TGI [34]: > 100 µM
- TGI [35]: > 100 µM
- TGI [36]: > 100 µM
- TGI [37]: > 59.2 µM
- TGI [38]: > 100 µM
- TGI [39]: 8.91 µM
- TGI [40]: > 100 µM
- TGI [41]: > 100 µM
- TGI [42]: > 100 µM
- TGI [43]: > 100 µM
- TGI [44]: > 100 µM
- TGI [45]: > 100 µM
- TGI [46]: > 100 µM
- TGI [47]: > 100 µM
- TGI [48]: > 100 µM
- TGI [50]: > 100 µM
- TGI [51]: > 100 µM
- TGI [52]: > 100 µM
- TGI [53]: > 100 µM
- TGI [54]: > 100 µM
- TGI [55]: > 100 µM
- TGI [56]: > 100 µM
- TGI [57]: > 100 µM
- TGI [58]: > 100 µM
